According to the supplement of paper PMC10307832:

Assays:
Assay in all cases: relative viability (nuclei count vs DMSO), 5 days (fraction); higher = more cells survive
[1] = compound: CCn1c(-c2nonc2N)nc2cnc(Oc3cccc(NC(=O)c4ccc(OCCN5CCOCC5)cc4)c3)cc21 + O=C(CCCCCCC(=O)Nc1ccccc1)NO [Vorinostat] (partner 1 µM)
In short: (§1)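 Relative viability divides the nuclei count in treated wells by that in vehicle wells. Lung cancer cell lines were seeded in 1536-well plates, dosed by pin tool the next day, and fixed and stained after 5 days in one step with final 0.05% Triton X-100, 1% formaldehyde and 1 ug/ml Hoechst. Dosing was a single drug or a fixed anchor-drug dose plus five library-drug doses (not always all listed) in √10 steps, and values are medians of duplicate plates imaged at 4×.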

[2] = compound: N=C1NC(=O)/C(=C/c2ccc(O)cc2)S1 [Mirin] + O=C(CCCCCCC(=O)Nc1ccccc1)NO [Vorinostat] (partner 1 µM)
In short: as §1

[3] = compound: CCn1c(-c2nonc2N)nc2cnc(Oc3cccc(NC(=O)c4ccc(OCCN5CCOCC5)cc4)c3)cc21 + Nc1ncn([C@H]2C[C@H](O)[C@@H](CO)O2)c(=O)n1 [Decitabine] (partner 2 µM)
In short: as §1

[4] = compound: CCn1c(-c2nonc2N)nc2cnc(Oc3cccc(NC(=O)c4ccc(OCCN5CCOCC5)cc4)c3)cc21 + C[C@@H](Oc1cc(-c2cnn(C3CCNCC3)c2)cnc1N)c1c(Cl)ccc(F)c1Cl [Crizotinib] (partner 1 µM)
In short: as §1

## PC-3 [JPC-3]
[1]; first compound 0.04 µM
  relative viability: 0.919
[1]; first compound 0.1265 µM
  relative viability: 0.701
[1]; first compound 0.4 µM
  relative viability: 0.713
[1]; first compound 1.265 µM
  relative viability: 0.549
[1]; first compound 4 µM
  relative viability: 0.692
[2]; first compound 0.25 µM
  relative viability: 0.919
[2]; first compound 0.7906 µM
  relative viability: 0.722
[2]; first compound 2.5 µM
  relative viability: 0.81
[2]; first compound 7.906 µM
  relative viability: 0.86
[2]; first compound 25 µM
  relative viability: 1.18
[3]; first compound 0.04 µM
  relative viability: 0.803
[3]; first compound 0.1265 µM
  relative viability: 0.764
[3]; first compound 0.4 µM
  relative viability: 0.764
[3]; first compound 1.265 µM
  relative viability: 0.655
[3]; first compound 4 µM
  relative viability: 0.725
[4]; first compound 0.04 µM
  relative viability: 0.961
[4]; first compound 0.1265 µM
  relative viability: 0.96
[4]; first compound 0.4 µM
  relative viability: 1.04
[4]; first compound 1.265 µM
  relative viability: 0.967
[4]; first compound 4 µM
  relative viability: 0.939

## HOP-62
[1]; first compound 0.04 µM
  relative viability: 0.936
[1]; first compound 0.1265 µM
  relative viability: 0.769
[1]; first compound 0.4 µM
  relative viability: 0.521
[1]; first compound 1.265 µM
  relative viability: 0.382
[1]; first compound 4 µM
  relative viability: 0.394
[2]; first compound 0.25 µM
  relative viability: 0.669
[2]; first compound 0.7906 µM
  relative viability: 0.527
[2]; first compound 2.5 µM
  relative viability: 0.679
[2]; first compound 7.906 µM
  relative viability: 0.411
[2]; first compound 25 µM
  relative viability: 0.603
[3]; first compound 0.04 µM
  relative viability: 0.226
[3]; first compound 0.1265 µM
  relative viability: 0.215
[3]; first compound 0.4 µM
  relative viability: 0.23
[3]; first compound 1.265 µM
  relative viability: 0.211
[3]; first compound 4 µM
  relative viability: 0.202
[4]; first compound 0.04 µM
  relative viability: 0.972
[4]; first compound 0.1265 µM
  relative viability: 0.86
[4]; first compound 0.4 µM
  relative viability: 0.951
[4]; first compound 1.265 µM
  relative viability: 0.931
[4]; first compound 4 µM
  relative viability: 0.755

## NCI-H2126
[1]; first compound 0.04 µM
  relative viability: 1.04
[1]; first compound 0.1265 µM
  relative viability: 0.879
[1]; first compound 0.4 µM
  relative viability: 0.608
[1]; first compound 1.265 µM
  relative viability: 0.894
[1]; first compound 4 µM
  relative viability: 0.82
[2]; first compound 0.25 µM
  relative viability: 0.852
[2]; first compound 0.7906 µM
  relative viability: 0.645
[2]; first compound 2.5 µM
  relative viability: 0.679
[2]; first compound 7.906 µM
  relative viability: 0.792
[2]; first compound 25 µM
  relative viability: 0.713
[3]; first compound 0.04 µM
  relative viability: 0.629
[3]; first compound 0.1265 µM
  relative viability: 0.623
[3]; first compound 0.4 µM
  relative viability: 0.56
[3]; first compound 1.265 µM
  relative viability: 0.636
[3]; first compound 4 µM
  relative viability: 0.519
[4]; first compound 0.04 µM
  relative viability: 1.05
[4]; first compound 0.1265 µM
  relative viability: 1.05
[4]; first compound 0.4 µM
  relative viability: 1.04
[4]; first compound 1.265 µM
  relative viability: 1.07
[4]; first compound 4 µM
  relative viability: 1.02

## NCI-H2087
[1]; first compound 0.04 µM
  relative viability: 0.776
[1]; first compound 0.1265 µM
  relative viability: 0.584
[1]; first compound 0.4 µM
  relative viability: 0.668
[1]; first compound 1.265 µM
  relative viability: 0.565
[1]; first compound 4 µM
  relative viability: 0.509
[2]; first compound 0.25 µM
  relative viability: 0.661
[2]; first compound 0.7906 µM
  relative viability: 0.748
[2]; first compound 2.5 µM
  relative viability: 0.729
[2]; first compound 7.906 µM
  relative viability: 0.573
[2]; first compound 25 µM
  relative viability: 0.774
[3]; first compound 0.04 µM
  relative viability: 0.321
[3]; first compound 0.1265 µM
  relative viability: 0.324
[3]; first compound 0.4 µM
  relative viability: 0.285
[3]; first compound 1.265 µM
  relative viability: 0.289
[3]; first compound 4 µM
  relative viability: 0.315
[4]; first compound 0.1265 µM
  relative viability: 0.591
[4]; first compound 0.4 µM
  relative viability: 0.678
[4]; first compound 1.265 µM
  relative viability: 0.522
[4]; first compound 4 µM
  relative viability: 0.336
